Results reported in patent US9617302B2 (priority 2011, dated 2017).
Several values for one entry are separate records, joined by “and”; a condition that tells them apart may be missing. Equal values may be shown once. Entries after “also recorded” stand apart in the source; their conditions may differ. No end group written: not given here.

Tests used:
[1] = tested on: washed platelets; format: cell-based, human; details: for IC50: read-out: IC50, inhibition of the collagen-induced aggregation
[2] = Tail bleeding time; format: in vivo, mice; details: 5 min after injection
Method: Bleeding time was measured by a minor modified method described by Dejana et al (Dejana E, Villa S, de Gaetano G. Bleeding time in rats: a comparison of different experimental conditions. Thrombosis and haemostasis 1982 Aug. 24; 48(1):108-11). […] A sharp cut of 2 mm from tail tip of mouse was made 5 min after injection. The tail was immediately placed into a tube filled with saline, kept at 37° C. for measuring bleeding time.

[3] = tested on: platelet-rich plasma (PRP) prepared from mice; assay: Ex vivo platelet aggregation study (PRP of treated mice, collagen); format: in vivo; details: 10 mg/kg; collagen 3 μg/ml
Method: […] The platelet number of the whole blood sample was counted by a Sysmex cell counter (Chuo-Ku Kobe, Japan). PRP was prepared immediately by centrifugation at 200 g for 5 min. Platelet counts in PRP were adjusted to 3×10^8/ml and aggregation assay was performed in an aggregometer.

[4] = tested on: platelet-rich thrombus formation in irradiated mesenteric venules; assay: Fluorescein sodium-induced platelet thrombus formation in mesenteric venules; format: in vivo, mice
[5] = molecular target: GPVI (Homo sapiens, UniProt Q9HCN6); format: binding
[6] = tested on: [Ca2+]i elevation in platelets; assay: Intracellular Ca2+ level in Fura-2-loaded platelets stimulated with collagen; format: cell-based; details: Fura-2/AM; various concentrations
Method: The concentration of intracellular free Ca^2+ was determined using a fluorescent probe, Fura-2/AM, according to the method of Pollock and Rink (Pollock W K, Rink T J. Thrombin and ionomycin can raise platelet cytosolic Ca2+ to micromolar levels by discharge of internal Ca2+ stores: studies using fura-2. Biochemical and biophysical research communications 1986 Aug. 29; 139(1):308-14). Fura-2/AM—loaded platelets were prepared as the washed platelets except washing with Ca^2+-free Tyrode solution and allowed platelets to uptake Fura-2/AM (5 μM) for 30 min in the first wash. The intracellular Ca^2+ level of Fura-2-loaded platelets (3×10^8/ml) in the presence of 1 mM of Ca^2+ was measured by the fluorescence change (excitation at 339 nm, emission at 500 nm) with a Hitachi fluorescence spectrophotometer.

[7] = Platelet count of whole blood after administration; format: in vivo, mice; details: 30 mg/kg, 5 min after administration; control 11.41±0.19
Method: Male ICR mice (25-30 g) were intravenously (IV) injected with PBS or hexapeptide (30 mg/kg), and then blood was collected at 5 min after injection. The platelet number of the whole blood sample was counted by a Sysmex cell counter (Chuo-Ku Kobe, Japan). PRP was prepared immediately by centrifugation at 200 g for 5 min. Platelet counts in PRP were adjusted to 3×10^8/ml and aggregation assay was performed in an aggregometer.

GPVI, sequence (Q9HCN6 21-339): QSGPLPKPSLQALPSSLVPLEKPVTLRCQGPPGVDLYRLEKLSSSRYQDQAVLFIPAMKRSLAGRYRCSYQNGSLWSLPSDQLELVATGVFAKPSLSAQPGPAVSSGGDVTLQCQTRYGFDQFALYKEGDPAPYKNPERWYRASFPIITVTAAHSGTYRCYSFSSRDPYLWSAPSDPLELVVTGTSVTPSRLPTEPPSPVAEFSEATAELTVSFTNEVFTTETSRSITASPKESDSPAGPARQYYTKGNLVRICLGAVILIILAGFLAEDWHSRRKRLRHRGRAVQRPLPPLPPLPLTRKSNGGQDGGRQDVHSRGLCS
GPVI, sequence (P30273 19-86, further chain): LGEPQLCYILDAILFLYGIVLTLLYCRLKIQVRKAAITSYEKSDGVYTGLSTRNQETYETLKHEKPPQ

With RKWVNY [Agg-α6] the “Inhibition of the collagen-induced aggregation (%)” value (from here on “Inhibition … (%)”) [1] was 21.67 ± 9.33%.
`CCCCS(=O)(=O)N[C@@H](Cc1ccc(OCCCCC2CCNCC2)cc1)C(=O)O` [tirofiban] gave a Bleeding time ([2]; 0.4 mg/kg IV) of 4.20 ± 1.20 min.
In the case of GFCKWMNVAC [Tro-α10], the “% of inhibition, collagen-induced platelet aggregation ex vivo” value [3] is reported as 55.87 ± 10.82 (n = 11) %, the “Occlusion time” value ([4]; 10 mg/kg, control (PBS) 153.0 ± 13.5 s) is reported as 294.5 ± 25.4 s and the “Occlusion time” value ([4]; 10 mg/kg, control (PBS) 153.0 ± 13.5 s, listed as Decapeptide) is reported as 294.5 ± 25.4 s. For the same compound, the “IC50, inhibition of the collagen-induced aggregation” value [1] was 93.75 ± 6.25 (IC50: 35.17 ± 11.00, the “Inhibition … (%)” value [1] was 60% and 93.75 ± 6.25 (IC50: 35.17 ± 11.00% and the IC50 [1] was 30.4 µM. The “Binding of anti-GPVI mAb (326E12) to platelets” value [5] was “specifically inhibited” and the “Collagen-evoked increase of [Ca2+]i” value [6] was “inhibited by decapeptide in a concentration-dependent manner”.
With `CC(=O)Oc1ccccc1C(=O)O` [aspirin, reference compound] the Bleeding time ([2]; 250 mg/kg IV) was 8.20 ± 0.91 min, the “Occlusion time” value ([4]; 250 mg/kg, control (PBS) 111.1 ± 5.1 s) was 298.7 ± 29.6 s and the “Occlusion time” value ([4]; 250 mg/kg, control (PBS) 111.1 ± 5.1 s, listed as Aspirin) was 298.7 ± 29.6 s.
In the case of CWNKMV [Tro-α6 scramble], the “Inhibitory activity on collagen-induced platelet aggregation (in words)” value [1] is reported as “little effect”.
In the case of CKAMNV [Tro-α6 W116A], the “Inhibition … (%)” value [1] is reported as 12.28 ± 2.40% and the “Inhibitory activity on collagen-induced platelet aggregation (in words)” value [1] is reported as “decreased dramatically; also recorded: diminished”.
With CKWMNV [Tro-α6, CKWMNV] the Platelet count [7] was 11.18±0.30 ×10^8/ml.
For CKWANV [Tro-α6 M117A], the “Inhibition … (%)” value [1] was 52.91 ± 15.90%.
With C(dK)WM(dN)V [d-form Tro-α6] the “IC50, inhibition of the collagen-induced aggregation” value [1] was “(IC50: 6.82 ± 3.34 μg/ml”, the “Inhibition … (%)” value [1] was 89.44 ± 6.49% and the IC50 [1] was 8.75 µM.
